Data: US10407383B2, “Cyclopentene and cyclopentadiene compounds for controlling invertebrate pests” (BASF SE, priority 2014, dated 2019)

Assays:
Format in all cases: in vivo
[1] = tested on: green peach aphid (Myzus persicae); experiment: Green peach aphid (Myzus persicae), systemic, 96-well plates with liquid artificial diet under membrane; conditions: 72 h, adult aphids on treated diet, 3 days, read-out: mortality in comparison with untreated controls
Source text: B.1 Green Peach Aphid (Myzus persicae)
For evaluating control of green peach aphid (Myzus persicae) through systemic means the test unit consisted of 96-well-microtiter plates containing liquid artificial diet under an artificial membrane.
The compounds were formulated using a solution containing 75% v/v water and 25% v/v DMSO. Different concentrations of formulated compounds were pipetted into the aphid diet, using a custom built pipetter, at two replications.
After application, 5-8 adult aphids were placed on the artificial membrane inside the microtiter plate wells. The aphids were then allowed to suck on the treated aphid diet and incubated at about 23±1° C. and about 50±5% relative humidity for 3 days. Aphid mortality and fecundity was then visually assessed.

[2] = tested on: vetch aphid (Megoura viciae); experiment: Vetch aphid (Megoura viciae), contact or systemic, broad bean leaf disks in 24-well plates; conditions: foliar, 120 h, adult aphids on sprayed leaf disks, 5 days, read-out: mortality in comparison with untreated controls
Method: B.2 Vetch Aphid (Megoura viciae)
For evaluating control of vetch aphid (Megoura viciae) through contact or systemic means the test unit consisted of 24-well-microtiter plates containing broad bean leaf disks.
The compounds were formulated using a solution containing 75% v/v water and 25% v/v DMSO. Different concentrations of formulated compounds were sprayed onto the leaf disks at 2.5 μl, using a custom built micro atomizer, at two replications.
After application, the leaf disks were air-dried and 5-8 adult aphids placed on the leaf disks inside the microtiter plate wells. The aphids were then allowed to suck on the treated leaf disks and incubated at about 23±1° C. and about 50±5% relative humidity for 5 days. Aphid mortality and fecundity was then visually assessed.

[3] = tested on: tobacco budworm (Heliothis virescens); experiment: Tobacco budworm (Heliothis virescens), insect diet with eggs in 96-well plates; conditions: 120 h, egg and larval mortality, 5 days, read-out: mortality in comparison with untreated controls
Method: B.3 Tobacco Budworm (Heliothis virescens)
For evaluating control of tobacco budworm (Heliothis virescens) the test unit consisted of 96-well-microtiter plates containing an insect diet and 15-25 H. virescens eggs.
The compounds were formulated using a solution containing 75% v/v water and 25% v/v DMSO. Different concentrations of formulated compounds were sprayed onto the insect diet at 10 μl, using a custom built micro atomizer, at two replications.
(§1) After application, microtiter plates were incubated at about 28±1° C. and about 80±5% relative humidity for 5 days. Egg and larval mortality was then visually assessed.

[4] = tested on: boll weevil (Anthonomus grandis); experiment: Boll weevil (Anthonomus grandis), insect diet with eggs in 24-well plates; conditions: 120 h, egg and larval mortality, 5 days, read-out: mortality in comparison with untreated controls
Method: B.4 Boll Weevil (Anthonomus grandis)
For evaluating control of boll weevil (Anthonomus grandis) the test unit consisted of 24-well-microtiter plates containing an insect diet and 20-30 A. grandis eggs.
The compounds were formulated using a solution containing 75% v/v water and 25% v/v DMSO. Different concentrations of formulated compounds were sprayed onto the insect diet at 20 μl, using a custom built micro atomizer, at two replications.
After application, microtiter plates were incubated at about 23±1° C. and about 50±5% relative humidity for 5 days. Egg and larval mortality was then visually assessed.

[5] = tested on: Mediterranean fruitfly (Ceratitis capitata); experiment: Mediterranean fruitfly (Ceratitis capitata), insect diet with eggs in microtiter plates; conditions: 120 h, egg and larval mortality, 5 days, read-out: mortality in comparison with untreated controls
Method: B.5 Mediterranean Fruitfly (Ceratitis capitata)
For evaluating control of Mediterranean fruitfly (Ceratitis capitata) the test unit consisted of microtiter plates containing an insect diet and 50-80 C. capitata eggs.
The compounds were formulated using a solution containing 75% v/v water and 25% v/v DMSO. Different concentrations of formulated compounds were sprayed onto the insect diet at 5 μl, using a custom built micro atomizer, at two replications.
as §1

[6] = tested on: Diamond Back Moth (Plutella Xylostella); experiment: Diamond back moth (Plutella xylostella), cabbage leaf dip, 3rd instar larvae; conditions: foliar, 72 hours after treatment, read-out: mortality in comparison with untreated controls
Method: B.6 Diamond Back Moth (Plutella Xylostella)
The active compound was dissolved at the desired concentration in a mixture of 1:1 (vol:vol) distilled water:aceteone. Surfactant (Kinetic HV) was added at a rate of 0.01% (vol/vol). The test solution was prepared at the day of use.
Leaves of cabbage were dipped in test solution and air-dried. Treated leaves were placed in petri dishes lined with moist filter paper and inoculated with ten 3rd instar larvae. Mortality was recorded 72 hours after treatment. Feeding damages were also recorded using a scale of 0-100%.

[7] = tested on: Orchid Thrips (Dichromothrips Corbetti); experiment: Orchid thrips (Dichromothrips corbetti), floral-immersion technique; conditions: adult thrips, 72 hours after treatment, read-out: mortality in comparison with untreated controls
Method: B.7 Orchid Thrips (Dichromothrips Corbetti)
Dichromothrips corbetti adults used for bioassay were obtained from a colony maintained continuously under laboratory conditions. For testing purposes, the test compound was diluted in a 1:1 mixture of acetone:water (vol:vol), plus Kinetic HV at a rate of 0.01% v/v.
Thrips potency of each compound was evaluated by using a floral-immersion technique. All petals of individual, intact orchid flowers were dipped into treatment solution and allowed to dry in Petri dishes. Treated petals were placed into individual re-sealable plastic along with about 20 adult thrips. All test arenas were held under continuous light and a temperature of about 28° C. for duration of the assay. After 3 days, the numbers of live thrips were counted on each petal. The percent mortality was recorded 72 hours after treatment.

[8] = tested on: Rice Green Leafhopper (Nephotettix virescens); experiment: Rice green leafhopper (Nephotettix virescens), sprayed potted rice seedlings; conditions: adults, after 72 hours, read-out: mortality in comparison with untreated controls
Method: B.8 Rice Green Leafhopper (Nephotettix virescens)
Rice seedlings were cleaned and washed 24 hours before spraying. The active compounds were formulated in 1:1 acetone:water (vol:vol), and 0.01% vol/vol surfactant (Kinetic HV) was added. Potted rice seedlings were sprayed with 5-6 ml test solution, air dried, covered with Mylar cages and inoculated with 10 adults. Treated rice plants were kept at about 28-29° C. and relative humidity of about 50-60%. Percent mortality was recorded after 72 hours.

[9] = tested on: Red Spider Mite (Tetranychus kanzawai); experiment: Red spider mite (Tetranychus kanzawai), sprayed potted cowpea beans; conditions: 72 hours after treatment, read-out: mortality in comparison with untreated controls
Method: B.9 Red Spider Mite (Tetranychus kanzawai)
The active compound was dissolved at the desired concentration in a mixture of 1:1 (vol:vol) distilled water:acetone. Surfactant (Kinetic HV) was added at a rate of 0.01% (vol/vol). The test solution was prepared at the day of use.
Potted cowpea beans of 4-5 days of age were cleaned with tap water and sprayed with 1-2 ml of the test solution using air driven hand atomizer. The treated plants were allowed to air dry and afterwards inoculated with 30 or more mites by clipping a cassava leaf section from rearing population. Treated plants were placed inside a holding room at about 25-27° C. and about 50-60% relative humidity. Percent mortality was assessed 72 hours after treatment.

O=C(NC1CS(=O)(=O)C1)c1ccc(C2=CC(c3cc(Cl)cc(Cl)c3)(C(F)(F)F)CC2)cc1Cl (stereo not shown) [Compound 1-11, 2-Chloro-4-[3-(3,5-dichlorophenyl)-3-(trifluoromethyl)cyclopenten-1-yl]-N-(1,1-dioxothietan-3-yl)benzamide]
≥ 75%: mortality at 2500 ppm [1] | mortality at 2500 ppm [2] | mortality at 2500 ppm [3] | mortality at 2500 ppm [4] | mortality at 2500 ppm [5] | mortality at 500 ppm [6] | mortality at 500 ppm [7] | mortality at 500 ppm [8] | mortality at 500 ppm [9]

O=C(O)c1ccc(C2=CC(c3cc(Cl)cc(Cl)c3)(C(F)(F)F)CC2)cc1Cl (stereo not shown) [Compound 1-12, 2-Chloro-4-[3-(3,5-dichlorophenyl)-3-(trifluoromethyl)cyclopenten-1-yl]benzoic acid]
≥ 75%: mortality at 2500 ppm [4]

COC(=O)c1ccc(C2=CC(c3cc(Cl)cc(Cl)c3)(C(F)(F)F)CC2)cc1Cl (stereo not shown) [Compound 1-13, Methyl 2-chloro-4-[3-(3,5-dichlorophenyl)-3-(trifluoromethyl)cyclopenten-1-yl]-benzoate]
≥ 75%: mortality at 2500 ppm [4] | mortality at 500 ppm [6]

O=C(NC1CS(=O)(=O)C1)c1ccc(C2=CC(c3cc(Cl)cc(Cl)c3)(C(F)(F)F)C=C2)cc1Cl (stereo not shown) [Compound 2-12, 2-Chloro-4-[3-(3,5-dichlorophenyl)-3-(trifluoromethyl)cyclopenta-1,4-dien-1-yl]-N-(1,1-dioxothietan-3-yl)benzamide]
≥ 75%: mortality at 2500 ppm [1] | mortality at 2500 ppm [2] | mortality at 2500 ppm [3] | mortality at 2500 ppm [4] | mortality at 2500 ppm [5] | mortality at 500 ppm [6] | mortality at 500 ppm [7] | mortality at 500 ppm [8] | mortality at 500 ppm [9]

O=C(NC1CS(=O)(=O)C1)c1ccc(C2=CCC(c3cc(Cl)cc(Cl)c3)(C(F)(F)F)C2)cc1Cl (stereo not shown) [Compound 3-9, 2-Chloro-4-[4-(3,5-dichlorophenyl)-4-(trifluoromethyl)cyclopenten-1-yl]-N-(1,1-dioxothietan-3-yl)benzamide]
≥ 75%: mortality at 2500 ppm [1] | mortality at 2500 ppm [2] | mortality at 2500 ppm [3] | mortality at 2500 ppm [4] | mortality at 2500 ppm [5] | mortality at 500 ppm [6] | mortality at 500 ppm [7] | mortality at 500 ppm [8] | mortality at 500 ppm [9]

O=C(O)c1ccc(C2=CCC(c3cc(Cl)cc(Cl)c3)(C(F)(F)F)C2)cc1Cl (stereo not shown) [Compound 3-11, 2-Chloro-4-[4-(3,5-dichlorophenyl)-4-(trifluoromethyl)cyclopenten-1-yl]benzoic acid]
≥ 75%: mortality at 2500 ppm [4]
